From PMC7188855, “Nucleic acid recognition and antiviral activity of 1,4-substituted terphenyl compounds mimicking all faces of the HIV-1 Rev protein positively-charged α-helix” (Scientific Reports, 2020) come the findings set out here.

Molecules are shown by their SMILES. Like-named read-outs stand apart in the source and are kept apart here.

For data set [1], the target named is RRE subdomain IIB RNA hairpin IIBh. Nature of the data set: Fluorescence intensity binding to fluorescein-labelled IIBh hairpin. Details: species or system HIV-1. An excerpt:
We next determined whether the terphenyl molecules blocked the interaction between Rev34–50 and subdomain IIB by binding to the RNA and, if so, whether they recognized subdomain IIB in a manner similar to the Rev34–50 α-helix. We first evaluated subdomain IIB association by measuring changes in the fluorescence intensity of a IIBh RNA hairpin construct containing a fluorescein probe attached to unpaired loop IIB residue U23 (Fig. 1D)[21],[22]. […] However, there were significant differences among the compounds.
(§1) These experiments measured association to IIBh-23fl or TARh-8fl RNA molecules labelled with fluorescein at extrahelical loop nucleotides U23 and U8, respectively (Fig. 1D), and were carried out under two different ionic conditions in a Victor X5 plate reader, using excitation and emission wavelengths of 485 and 520 nm, respectively. We also attempted to measure association to an alternative IIBh hairpin containing 2-aminopurine instead of adenine at unpaired loop IIB residue A19[21], but all terphenyls fluoresced at the excitation wavelength of this fluorophore. IIBh-23fl or TARh-8fl (at 100 nM concentration) was equilibrated for 5 minutes after each ligand addition in a buffer containing either 10 mM sodium phosphate pH 6.6 and 0.1 mM EDTA or 10 mM HEPES pH 7.5, 200 mM KCl and 2 mM MgCl2. In addition to the TARh specificity control, the RNA and DNA specificity of the IIBh interactions was assessed by duplicating the experiments in the presence of a 10-fold molar excess (1 μM) of either tRNA^Lys or DNA duplex LTRd. The equilibrium dissociation constants Kd were determined by fitting the fluorescence intensity curves with DYNAFIT[40]. We used one-site, two independent-sites and two interacting-sites binding models for all curves, and the best model was automatically selected by model discrimination analysis, except where indicated. The final graphs were plotted with Prism. All fluorescence intensity experiments were performed at least two times for each compound and condition.

The test system of another data set is high-order RRE-Rev. Briefly: EMSA of full-length RRE-Rev ribonucleoprotein formation. The data set is classed as binding, HIV-1. Particulars: 78 nM RRE, 1.32 μM Rev, 300 mM KCl, 1 mM MgCl2, band of high-order complexes. An excerpt: After the high-affinity interaction between RRE subdomain IIB and the Rev34–50 helix of the first Rev monomer is established, the RRE-Rev ribonucleoprotein is formed by the incorporation of additional Rev units binding to further sites in the RRE (Fig. 3B, right)[9],[10],[13]. Using an electrophoretic mobility shift assay (EMSA) involving full-length RRE and Rev, we also evaluated whether 1,4-terphenyl compounds were capable of interfering with the formation of the ribonucleoprotein. […] The effect was particularly prominent for high-order complexes (containing a greater number of Rev monomers), but the inhibition of low-order complexes by 1d was also detected at concentrations consistent with the IC50 value measured in the IIB-Rev34–50 displacement experiment. Compounds 1b and 3c exerted a weaker effect on the RRE-Rev complex, in agreement with the results obtained in the displacement experiments monitored by fluorescence anisotropy (Fig. 3B and Table 1).
(§2) The experiments monitoring RRE-Rev inhibition utilized 78 nM full-length RRE and 1.32 μM full-length Rev dissolved in 10 mM HEPES pH 7.5, 300 mM KCl, 1 mM MgCl2 and 0.5 mM EDTA binding buffer, and increasing concentrations of each compound up to 50 μM[21],[39]. The reactions were incubated at room temperature for 20 minutes and loaded onto 8% polyacrylamide gels with TB running buffer. Gels were run at 4 °C for 1–4 hours at 150 V, and the bands were stained with SYBR gold and quantified with Quantity One 4.1 analysis software. Experiments monitoring binding to the 58-base pair HIV-1 LTRc core segment utilized 20 nM LTRc duplex dissolved in the same binding buffer, and increasing concentrations of each compound. The reactions were similarly incubated and loaded onto 20% polyacrylamide gels with TB running buffer. The gels were run at 4 °C for 3.5 hours at 150 V, and the bands were stained and quantified as described above. The specificity of LTRc association was evaluated by duplicating the experiments in the presence of a 100-fold molar excess of DNAd duplex (28-fold base-pair molar excess). In all cases, we monitored the disappearance of the band corresponding to high-order RRE-Rev complexes or free LTRc, and 50% response RC50 values were determined with Prism by fitting the data to a sigmoidal inhibitory model: I−Imin=ImaxC/1+C/RC50 where I is the intensity of the band corresponding to LTRc or high-order RRE-Rev species at compound concentration C, Imax the best-fit value for maximum intensity, and Imin the minimum intensity obtained at the highest concentration of inhibitor. All EMSA experiments were repeated three times for each compound.
A general note: In EMSA bound probe runs differently from free probe, usually more slowly.

In another data set the test system is HIV-1. Briefly: Cellular HIV-1 infection assay (NL4.3-Ren, MT-2 cells). The data set is classed as cell-based. Particulars: Human immunodeficiency virus 1, MT2, 48 h post-infection. The protocol:
(§3) The methodology used to perform and analyse these experiments has been reported elsewhere[7],[21],[22]. Briefly, infectious supernatants were obtained from transfection of plasmid pNL4.3-Ren on 293 T cells, MT-2 cells were infected with these supernatants in the presence of the compounds, and anti-HIV activity quantification was performed 48 h post-infection by determining luciferase activity in cell lysates compared to a non-treated control (100%). Cellular viability was evaluated in mock infected cells similarly treated with the same concentrations of compounds using the CellTiterGlo (Promega) assay.

Data set [2] has as its system LTRc, core region of the HIV-1 LTR promoter. Nature of the data set: EMSA of association to LTRc DNA. Conditions: 20 nM LTRc duplex; 10 mM HEPES pH 7.5, 300 mM KCl, 1 mM MgCl2, 0.5 mM EDTA. It counts as binding. As for the experimental part:
as §2

Data set [3] can be described thus: Cellular viability (CellTiterGlo) in mock infected cells. It counts as cell-based. Particulars: human, mock infected MT-2 cells. The protocol:
as §3
On the technique in general: Cellular ATP, detected with luciferase, serves as a proxy for viable cell number.

Data set [4] concerns the target RRE subdomain IIB-Rev34–50. Nature of the data set: Fluorescence anisotropy displacement of the IIBh-Rev34–50 interaction. Conditions: read-out: IC50, RRE subdomain IIB-Rev34–50, 60 nM IIBh, 10 nM frevp, 100 mM KCl, 20 mM NaCl, 2 mM MgCl2. In general terms: Fluorescence polarisation rises when a labelled molecule tumbles more slowly, as on binding a larger partner.
Method: These experiments were conducted in a Victor X5 (PerkinElmer) plate reader as described before[7],[21], using 10 nM frevp and 60 nM IIBh. […] Each fluorescence anisotropy experiment was repeated at least two times.
For data set [5], the target named is TARh hairpin containing the HIV-1 Tat-binding UCU bulge. Nature of the data set: Fluorescence intensity binding to control TARh hairpin.
Text: To evaluate the specificity of subdomain IIB recognition, we measured binding to a control TARh hairpin containing the HIV-1 Tat-binding UCU bulge[23] (Fig. 1D). […] We further assessed specificity by duplicating the IIBh-23fl association experiments in the presence of a 10-fold molar excess of tRNA^Lys or a 26-base pair LTRd DNA duplex. The binding curves of the compounds were affected by the presence of competitive tRNA^Lys and to a lesser extent by LTRd (Figs. 4A, S4 and S5 and Tables 2 and S2).
as §1

The mark [6] stands for this setting: low ionic strength, 10 mM sodium phosphate pH 6.6, uses Kd1.
Where [7] appears, read: low ionic strength, 10 mM sodium phosphate pH 6.6, 0.1 mM EDTA, two-site model, read-out: Kd,1 first-site equilibrium dissociation constant (IIBh), Table S1.
The mark [8] stands for this setting: low ionic strength, 10 mM sodium phosphate pH 6.6, 0.1 mM EDTA, two-site model, read-out: Kd,2 second-site equilibrium dissociation constant (IIBh), Table S1.

The term Kd denotes the concentration at which binding is half-saturated. By IC50 is commonly meant the concentration that gives 50% inhibition. As usually defined, the EC50 is the concentration at which the effect is half-maximal. The low end stands for greater potency, the high end for weaker potency. Broadly, the CC50 is the concentration giving 50% cytotoxicity. Read a high CC50 as lower toxicity to the cells. As for `CCc1cc(-c2cc(CCN)c(OC)cc2CCN)c(CC)cc1-c1cc(CCN)c(OC)cc1CCN` [Compound 1b], the Kd in data set [1] (10 mM sodium phosphate pH 6.6, 0.1 mM EDTA, two-site model, read-out: Kd (IIBh), first-site Kd1) was 0.51 µM; in data set [1] (10 mM sodium phosphate pH 6.6, 0.1 mM EDTA, two-site model, read-out: Kd (IIBh), second-site Kd2 (in brackets)), 21 µM; in data set [1] (10-fold molar excess DNA duplex LTRd, 10 mM sodium phosphate pH 6.6, 0.1 mM EDTA, one-site fit, approximate, read-out: Kd (IIBh+LTRd)) it was 6.5 µM; in data set [1] (10-fold molar excess LTRd, 10 mM HEPES pH 7.5, 200 mM KCl, 2 mM MgCl2, read-out: Kd (IIBh+LTRd), one-site or first-site Kd1, Table S2), more than 50 µM; in data set [1] (10-fold molar excess tRNALys, 10 mM HEPES pH 7.5, 200 mM KCl, 2 mM MgCl2, one-site fit, approximate, read-out: Kd (IIBh+tRNA), Table S2), more than 50 µM; in data set [1] (10-fold molar excess tRNALys, 10 mM sodium phosphate pH 6.6, 0.1 mM EDTA, one-site fit, approximate, read-out: Kd (IIBh+tRNA)) it was 8.7 µM. For the same compound, the Kd was more than 50 µM in data set [1] (higher ionic strength, 10 mM HEPES pH 7.5, 200 mM KCl, 2 mM MgCl2, read-out: Kd (IIBh), first-site Kd1, Table S2); more than 50 µM in data set [5] (10 mM sodium phosphate pH 6.6, 0.1 mM EDTA, read-out: Kd (TARh), one-site or first-site Kd1); more than 50 µM in data set [5] (higher ionic strength, 10 mM HEPES pH 7.5, 200 mM KCl, 2 mM MgCl2, read-out: Kd (TARh), Table S2). Besides, the “IIB-DNA spec., Kd(IIBh)/Kd(IIBh+LTRd)” value in data set [1] (setting [6]) was 0.078. In data set [1] (setting [6]), the “IIB-tRNA spec., Kd(IIBh)/Kd(IIBh+tRNA)” value is recorded as 0.059. For the same compound, the IC50 in the data set on high-order RRE-Rev is more than 50 µM; in data set [4] it was more than 100 µM. For the same compound, in the data set with HIV-1, the EC50 is more than 100 µM. In addition, in data set [2], the “association to LTRc (EMSA)” value is reported as “not detected”. The CC50 at 48 h in data set [3] is more than 100 µM.

With `CCOc1cc(CCN)c(-c2cc(C)c(-c3cc(CCN)c(OCC)cc3CCN)cc2C)cc1CCN` [Compound 1c], the Kd in data set [1] (setting [7]) was 0.19 µM; in data set [1] (setting [8]), 74 µM. Also, in the data set on HIV-1, the concentration giving a half-maximal response (EC50) is more than 100 µM. Also, the 50% cytotoxic concentration (CC50) at 48 h in data set [3] is more than 100 µM. Also, the IC50 in data set [4] was more than 100 µM.

Take `COc1cc(CCCN)c(-c2cc(C)c(-c3cc(CCCN)c(OC)cc3CCCN)cc2C)cc1CCCN` [Compound 2a]: the Kd amounted to 0.67 µM in data set [1] (setting [7]) and 25 µM in data set [1] (setting [8]). The same compound gave an EC50 in the data set with HIV-1 of more than 100 µM. Further, the CC50 at 48 h in data set [3] was more than 100 µM. Further, the IC50 in data set [4] is more than 100 µM.

For `CCc1cc(-c2cc(CCCN)c(OC)cc2CCCN)c(CC)cc1-c1cc(CCCN)c(OC)cc1CCCN` [Compound 2b], the Kd in data set [1] (setting [7]) was 0.11 µM; in data set [1] (setting [8]), 46 µM. In addition, the EC50 in the data set on HIV-1 is more than 100 µM. For the same compound, the CC50 at 48 h in data set [3] is more than 100 µM. The IC50 in data set [4] is more than 100 µM.

Consider `COc1ccc(-c2cc(C)c(-c3cc(CCN)c(OC)cc3CCN)cc2C)cc1CCN` [Compound 3a], for which the equilibrium dissociation constant (Kd) was found to be 8.9 µM in data set [1] (setting [7]) and 36 µM in data set [1] (setting [8]). Further, the EC50 with HIV-1 was found to be 35.5 µM. In data set [3], this compound came in with a half-maximal cytotoxic concentration (CC50) at 48 h of more than 100 µM. Also, in data set [4], the IC50 was more than 100 µM.

For `COc1ccc(-c2cc(C)c(-c3cc(CCN)ccc3CCN)cc2C)cc1CCN` [Compound 3b], the Kd in data set [1] (setting [7]) came out at 5.5 µM; in data set [1] (setting [8]), 22 µM. The compound also registered an EC50 in the data set on HIV-1 of more than 100 µM. The CC50 at 48 h in data set [3] is more than 100 µM. Moreover, in data set [4], the IC50 is more than 100 µM.

For the compound `Cc1cc(-c2cc(CCN)ccc2CCN)c(C)cc1-c1ccccc1CCN` [Compound 4], the values for the equilibrium dissociation constant (Kd) in data set [1] (setting [7]) and in data set [1] (setting [8]) were 3.7 µM and 33 µM, respectively. The EC50 in the data set with HIV-1 was 50 to 100 µM. Besides, the CC50 at 48 h in data set [3] was more than 100 µM. In addition, the IC50 in data set [4] is more than 100 µM.
